Test results from the CheMixHub viscosity set.
± gives the uncertainty stated by the source.

Experiment: xn = mol fraction of the nth substance listed

Work on `ClCc1ccccc1` + COc1ccccc1 yielded a viscosity (303.15 K, 101 kPa, x2 = 0.1045) of 1.245 ± 0.011 mPa·s, a viscosity (303.15 K, 101 kPa, x2 = 0.1911) of 1.362 ± 0.013 mPa·s and a viscosity (303.15 K, 101 kPa, x2 = 0.304) of 1.438 ± 0.013 mPa·s. It also gave a viscosity (303.15 K, 101 kPa, x2 = 0.4094) of 1.466 ± 0.013 mPa·s, a viscosity (303.15 K, 101 kPa, x2 = 0.5182) of 1.45 ± 0.013 mPa·s and a viscosity (303.15 K, 101 kPa, x2 = 0.6162) of 1.394 ± 0.013 mPa·s. It also gave a viscosity (303.15 K, 101 kPa, x2 = 0.7196) of 1.3 ± 0.012 mPa·s, a viscosity (303.15 K, 101 kPa, x2 = 0.8053) of 1.192 ± 0.011 mPa·s and a viscosity (303.15 K, 101 kPa, x2 = 0.9137) of 1.061 ± 0.0099 mPa·s.

Work on `CCCCOC(=O)c1ccccc1` + CC#N yielded a viscosity (293.15 K, 101.33 kPa, x1 = 0.125) of 0.446 ± 0.005 mPa·s, a viscosity (293.15 K, 101.33 kPa, x1 = 0.244) of 0.486 ± 0.005 mPa·s and a viscosity (293.15 K, 101.33 kPa, x1 = 0.355) of 0.533 ± 0.005 mPa·s. It also gave a viscosity (293.15 K, 101.33 kPa, x1 = 0.463) of 0.629 ± 0.006 mPa·s, a viscosity (293.15 K, 101.33 kPa, x1 = 0.563) of 0.762 ± 0.006 mPa·s and a viscosity (293.15 K, 101.33 kPa, x1 = 0.654) of 0.956 ± 0.007 mPa·s. For the same compound, the viscosity (293.15 K, 101.33 kPa, x1 = 0.75) was 1.173 ± 0.008 mPa·s, the viscosity (293.15 K, 101.33 kPa, x1 = 0.83) was 1.57 ± 0.01 mPa·s and the viscosity (293.15 K, 101.33 kPa, x1 = 0.919) was 2.131 ± 0.013 mPa·s. The viscosity (303.15 K, 101.33 kPa, x1 = 0.125) was 0.402 ± 0.005 mPa·s, the viscosity (303.15 K, 101.33 kPa, x1 = 0.244) was 0.434 ± 0.005 mPa·s and the viscosity (303.15 K, 101.33 kPa, x1 = 0.355) was 0.472 ± 0.005 mPa·s. For the same compound, the viscosity (303.15 K, 101.33 kPa, x1 = 0.463) was 0.551 ± 0.005 mPa·s, the viscosity (303.15 K, 101.33 kPa, x1 = 0.563) was 0.655 ± 0.006 mPa·s and the viscosity (303.15 K, 101.33 kPa, x1 = 0.654) was 0.808 ± 0.006 mPa·s. For the same compound, the viscosity (303.15 K, 101.33 kPa, x1 = 0.75) was 0.979 ± 0.007 mPa·s, the viscosity (303.15 K, 101.33 kPa, x1 = 0.83) was 1.27 ± 0.008 mPa·s and the viscosity (303.15 K, 101.33 kPa, x1 = 0.919) was 1.69 ± 0.01 mPa·s. For the same compound, the viscosity (313.15 K, 101.33 kPa, x1 = 0.125) was 0.364 ± 0.005 mPa·s, the viscosity (313.15 K, 101.33 kPa, x1 = 0.244) was 0.392 ± 0.005 mPa·s and the viscosity (313.15 K, 101.33 kPa, x1 = 0.355) was 0.424 ± 0.005 mPa·s. The viscosity (313.15 K, 101.33 kPa, x1 = 0.463) was 0.483 ± 0.005 mPa·s, the viscosity (313.15 K, 101.33 kPa, x1 = 0.563) was 0.567 ± 0.005 mPa·s and the viscosity (313.15 K, 101.33 kPa, x1 = 0.654) was 0.696 ± 0.006 mPa·s. It also gave a viscosity (313.15 K, 101.33 kPa, x1 = 0.75) of 0.825 ± 0.006 mPa·s, a viscosity (313.15 K, 101.33 kPa, x1 = 0.83) of 1.056 ± 0.007 mPa·s and a viscosity (313.15 K, 101.33 kPa, x1 = 0.919) of 1.368 ± 0.009 mPa·s. For the same compound, the viscosity (323.15 K, 101.33 kPa, x1 = 0.125) was 0.313 ± 0.005 mPa·s, the viscosity (323.15 K, 101.33 kPa, x1 = 0.244) was 0.352 ± 0.005 mPa·s and the viscosity (323.15 K, 101.33 kPa, x1 = 0.355) was 0.382 ± 0.005 mPa·s. The viscosity (323.15 K, 101.33 kPa, x1 = 0.463) was 0.43 ± 0.005 mPa·s, the viscosity (323.15 K, 101.33 kPa, x1 = 0.563) was 0.461 ± 0.005 mPa·s and the viscosity (323.15 K, 101.33 kPa, x1 = 0.654) was 0.603 ± 0.006 mPa·s. The viscosity (323.15 K, 101.33 kPa, x1 = 0.75) was 0.667 ± 0.006 mPa·s, the viscosity (323.15 K, 101.33 kPa, x1 = 0.83) was 0.9 ± 0.007 mPa·s and the viscosity (323.15 K, 101.33 kPa, x1 = 0.919) was 1.119 ± 0.008 mPa·s.

Compound `C1COCCOCCOCCOCCO1` + O has a viscosity (293.15 K, 101 kPa, x1 = 0.0006204) of 1.026 ± 0.014 mPa·s, a viscosity (293.15 K, 101 kPa, x1 = 0.001402) of 1.056 ± 0.014 mPa·s and a viscosity (293.15 K, 101 kPa, x1 = 0.00196) of 1.077 ± 0.014 mPa·s. The viscosity (293.15 K, 101 kPa, x1 = 0.002451) was 1.096 ± 0.015 mPa·s, the viscosity (293.15 K, 101 kPa, x1 = 0.002972) was 1.116 ± 0.015 mPa·s and the viscosity (293.15 K, 101 kPa, x1 = 0.003463) was 1.135 ± 0.015 mPa·s. It also gave a viscosity (298.15 K, 101 kPa, x1 = 0.0008458) of 0.9177 ± 0.012 mPa·s, a viscosity (298.15 K, 101 kPa, x1 = 0.001528) of 0.94 ± 0.013 mPa·s and a viscosity (298.15 K, 101 kPa, x1 = 0.002266) of 0.9641 ± 0.013 mPa·s. The viscosity (298.15 K, 101 kPa, x1 = 0.002834) was 0.9822 ± 0.013 mPa·s, the viscosity (298.15 K, 101 kPa, x1 = 0.003303) was 0.9976 ± 0.013 mPa·s and the viscosity (298.15 K, 101 kPa, x1 = 0.003773) was 1.013 ± 0.013 mPa·s. It also gave a viscosity (303.15 K, 101 kPa, x1 = 0.0006643) of 0.8159 ± 0.011 mPa·s, a viscosity (303.15 K, 101 kPa, x1 = 0.001358) of 0.835 ± 0.011 mPa·s and a viscosity (303.15 K, 101 kPa, x1 = 0.002066) of 0.8548 ± 0.011 mPa·s. It also gave a viscosity (303.15 K, 101 kPa, x1 = 0.003143) of 0.8854 ± 0.012 mPa·s, a viscosity (303.15 K, 101 kPa, x1 = 0.00351) of 0.8952 ± 0.012 mPa·s and a viscosity (303.15 K, 101 kPa, x1 = 0.003848) of 0.9049 ± 0.012 mPa·s. The viscosity (308.15 K, 101 kPa, x1 = 0.0008516) was 0.7393 ± 0.01 mPa·s, the viscosity (308.15 K, 101 kPa, x1 = 0.001375) was 0.7519 ± 0.01 mPa·s and the viscosity (308.15 K, 101 kPa, x1 = 0.001712) was 0.7607 ± 0.01 mPa·s. It also gave a viscosity (308.15 K, 101 kPa, x1 = 0.00238) of 0.7764 ± 0.01 mPa·s, a viscosity (308.15 K, 101 kPa, x1 = 0.003105) of 0.7938 ± 0.011 mPa·s and a viscosity (308.15 K, 101 kPa, x1 = 0.003675) of 0.8069 ± 0.011 mPa·s.

For `O=S(=O)([O-])[O-].[Ni+2]` + O, the viscosity (298.15 K, 101 kPa, x1 = 0.00332) was 1.04 ± 0.03 mPa·s, the viscosity (298.15 K, 101 kPa, x1 = 0.0106) was 1.32 ± 0.03 mPa·s and the viscosity (298.15 K, 101 kPa, x1 = 0.01799) was 1.82 ± 0.05 mPa·s. The viscosity (298.15 K, 101 kPa, x1 = 0.02625) was 2.66 ± 0.07 mPa·s, the viscosity (298.15 K, 101 kPa, x1 = 0.0309) was 3.13 ± 0.08 mPa·s and the viscosity (298.15 K, 101 kPa, x1 = 0.04249) was 5.21 ± 0.14 mPa·s. For the same compound, the viscosity (313.15 K, 101 kPa, x1 = 0.00332) was 0.762 ± 0.02 mPa·s, the viscosity (313.15 K, 101 kPa, x1 = 0.0106) was 0.934 ± 0.024 mPa·s and the viscosity (313.15 K, 101 kPa, x1 = 0.01799) was 1.283 ± 0.033 mPa·s. It also gave a viscosity (313.15 K, 101 kPa, x1 = 0.02625) of 1.83 ± 0.048 mPa·s, a viscosity (313.15 K, 101 kPa, x1 = 0.0309) of 2.145 ± 0.056 mPa·s and a viscosity (313.15 K, 101 kPa, x1 = 0.04249) of 3.462 ± 0.091 mPa·s.

In the case of `Cc1ccc(NC(=O)NCCCCCCCCCCC(C)C)cc1NC(=O)NCCCCCCCCCCC(C)C` + CCCCC, the viscosity (293.15 K, 100 kPa, x1 = 0.0001) is reported as 204 ± 16 mPa·s.
